The values that follow come from US8378117B2 (priority 2005, dated 2013).

Structures are written as SMILES. pEC50, pIC50: −log10 of the molar value.

Test [1] addresses T1, CB1 receptor (Homo sapiens, UniProt P21554).
T1 construct: expressed in transfected cells
Kind of test: cell-based. The following applies: CB1 Receptor Functional Agonist EC50, SK-N-MC cells, forskolin induced β-galactosidase activity. The procedure, abridged: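 SK-N-MC cells stably co-expressing human CB1 and a CRE-β-galactosidase reporter; forskolin-induced β-gal activity measured after compound treatment, as % of vehicle-treated cells (100%). EC50 by linear regression from concentration series; otherwise % change at a single concentration.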

Test [2] addresses T1, CB1 receptor. The test can be described thus: Modified functional cell-based assay (Beta-Glo luminescence), CB1 receptor. On the procedure: Additional functional activity studies were performed with minor modifications. Beta galactosidase activity was quantified using the luminescent Beta-Glo Assay System (Promega Corp. Madison, Wis.) and an Orion Microplate Luminometer (Berthold Detection Systems, Oak Ridge, Tenn.). The EC50 values were calculated using GraphPad Prism and a four parameter logistic equation.
The functional activity EC50 value for compounds tested (shown in Table 8) were obtained from studies in which varying compound concentrations were used. With the exception of Cpd 237 (n=3), one sample for each compound was tested.

Test [3] has as its target T2, CB2 receptor (Homo sapiens, UniProt P34972).
T2 construct: expressed in transfected cells
Kind of test: Modified binding assay, CB2 receptor in CHO cells, [3H]WIN 55212. To be noted: [3H]WIN 55212 0.8 nM, 120 minutes at 37° C. On the procedure: Additional receptor binding studies were performed with minor modifications as detailed below.
The human CB1 and CB2 receptors were stably expressed in CHO cells as described in Rinaldi-Carmona, M., Calandra, B., Shire, D., Bouaboula, M., Oustric, D., Barth, F., Casellas, P., Ferrara, P. and Le Fur, G. (1996) J. PharmacoL Exp. Ther., 278: 871-878 and Munro, S., Thomas, K. L. and Abu-Shaar, M. (1993) Nature, 365: 61-65, respectively. [^3H]CP 55940 (0.5 nM) was used as the radioligand for the CB1 receptor binding assay. [^3H]WIN 55212 (0.8 nM) was used as the radioligand for the CB2 receptor binding assay. Incubation was carried out for 120 minutes at 37° C.
The specific ligand binding to the receptors is defined as the difference between the total binding and the nonspecific binding determined in the presence of an excess of unlabelled ligand. The results are expressed as a percent of control specific binding ((measured specific binding/control specific binding)×100) obtained in the presence of the test compounds.
The IC50 values (concentration causing a half-maximal inhibition of control specific binding) were determined by non-linear regression analysis of the competition curves generated with mean replicate values using Hill equation curve fitting (where Y=specific binding, D=minimum specific binding, A=maximum specific binding, C=compound concentration, C50=IC50 and nH=slope factor): (Y=D+[(A−D)/(1+(C/C50)^nH)] CB1 and CB2 Receptor Binding Results
For compounds tested, an IC50 binding value was obtained from percent inhibition studies in which various test concentrations were used.

For test [4], the target named is T2, CB2 receptor. Kind of test: Functional cell-based assay, CB2 receptor mediated change in CRE β-gal expression (SK-N-MC cells). To be noted: CB2 Receptor Functional Agonist EC50, forskolin induced β-galactosidase activity, SK-N-MC cells. From the text: The CB1 and CB2 receptors are G-protein coupled receptors (GPCR), which influence cell function via the Gi-protein. These receptors modulate the activity of intracellular adenylate cyclase, which in turn produces the intracellular signal messenger cyclic-AMP (cAMP).
At baseline, or during non-ligand bound conditions, these receptors are constitutively active and tonically suppress adenylate cyclase activity. The binding of an agonist causes further receptor activation and produces additional suppression of adenylate cyclase activity. The binding of an inverse agonist inhibits the constitutive activity of the receptors and results in an increase in adenylate cyclase activity.
By monitoring intracellular adenylate cyclase activity, the ability of compounds to act as agonists or inverse agonists can be determined.
Test compounds were evaluated in SK-N-MC cells which, using standard transfection procedures, were stably transfected with human cDNA for pcDNA3-CRE β-gal and pcDNA3 CB1 receptor (human) or pcDNA3 CB2 receptor (human). By expressing CRE β-gal, the cells produced β-galactosidase in response to CRE promoter activation by cAMP. Cells expressing CRE β-gal and either the human CB1 or CB2 receptor will produce less β-galactosidase when treated with a CB1/CB2 agonist and will produce more β-galactosidase when treated with a CB1/CB2 inverse agonist.
The cells were grown in 96-well plates under standard cell culture conditions at 37° C. in a 5% CO2 atmosphere and culture media (wherein the media was supplemented with 2 mM L-glutamine, […] sodium pyruvate, 10% FBS (fetal bovine serum) and antibiotics).
For cells expressing CRE β-gal and the CB2 receptor, CB2 agonists reduced β-galactosidase activity in a dose-dependent manner and CB2 inverse agonists increase β-galactosidase activity in a dose-dependent manner.
The change in forskolin induced β-galactosidase activity was determined by setting a vehicle treated cell's activity value at 100% and expressing the β-galactosidase activity measured in a corresponding compound treated cell as a percent of the vehicle treated cell activity.
The EC50 value for functional activity for compounds tested was calculated by linear regression and was obtained from studies in which varying compound concentrations were used.

The mark [5] stands for this setting: CB1 EC50 (Receptor Functional Activity), one sample per compound, Cpd 237 n=3.

T1 sequence (P21554 whole entry): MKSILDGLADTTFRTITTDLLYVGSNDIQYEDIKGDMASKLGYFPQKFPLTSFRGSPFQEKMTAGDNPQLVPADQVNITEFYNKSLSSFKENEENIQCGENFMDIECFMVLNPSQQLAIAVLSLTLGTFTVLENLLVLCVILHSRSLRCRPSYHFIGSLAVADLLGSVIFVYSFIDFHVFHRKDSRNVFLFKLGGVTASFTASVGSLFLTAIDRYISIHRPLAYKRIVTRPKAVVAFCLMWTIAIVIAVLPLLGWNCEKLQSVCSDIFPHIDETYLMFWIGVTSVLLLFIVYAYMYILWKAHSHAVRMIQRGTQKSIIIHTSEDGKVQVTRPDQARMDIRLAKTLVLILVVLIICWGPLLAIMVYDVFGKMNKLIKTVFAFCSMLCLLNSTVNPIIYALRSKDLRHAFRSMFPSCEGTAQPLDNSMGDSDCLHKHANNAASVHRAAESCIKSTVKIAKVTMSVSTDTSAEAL
T2 sequence (P34972 whole entry): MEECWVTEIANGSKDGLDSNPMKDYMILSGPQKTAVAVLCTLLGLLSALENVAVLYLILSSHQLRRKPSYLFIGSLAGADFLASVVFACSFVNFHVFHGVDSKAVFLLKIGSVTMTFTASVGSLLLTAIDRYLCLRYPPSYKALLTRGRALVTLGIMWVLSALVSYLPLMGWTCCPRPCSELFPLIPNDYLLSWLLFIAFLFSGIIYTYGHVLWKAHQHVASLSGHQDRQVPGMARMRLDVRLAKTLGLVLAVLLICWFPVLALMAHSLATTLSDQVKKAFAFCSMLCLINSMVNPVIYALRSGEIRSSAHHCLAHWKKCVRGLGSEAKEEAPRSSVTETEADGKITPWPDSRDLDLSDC

Usually pEC50 stands for the EC50 on a negative log10 scale, so that one unit is a factor of ten. A word on the pIC50: it is the negative decadic logarithm of the IC50, by convention in mol/L. High values mean a small IC50, low ones a large IC50. For `O=C(N[C@H](CO)c1ccccc1)c1n[nH]c2c1CCCCC2Cc1cccc(Cl)c1` (single isomer, unassigned) [Cpd 230, (8R*)-8-(3-chloro-benzyl)-1,4,5,6,7,8-hexahydro-cycloheptapyrazole-3-carboxylic acid [(1S)-2-hydroxy-1-phenyl-ethyl]-amide], the pEC50 is 6.00 in test [1], < 6.00 in test [2] (setting [5]) and 8.70 in test [4]. Besides, the negative-log IC50 (pIC50) in test [3] was 7.04.
Turning to `O=C(N[C@H](CO)c1ccccc1)c1n[nH]c2c1CCCCC2Cc1cccc(Cl)c1` (single isomer, unassigned) [Cpd 231, (8S*)-8-(3-chloro-benzyl)-1,4,5,6,7,8-hexahydro-cycloheptapyrazole-3-carboxylic acid [(1S)-2-hydroxy-1-phenyl-ethyl]-amide], the pEC50 in test [1] was < 5.30; in test [2] (read-out: CB1 EC50 (Receptor Functional Activity), one sample per compound, Cpd 237 n=3), < 6.00; in test [4], 7.92. Further, the negative-log IC50 (pIC50) in test [3] was 5.74.
Consider `C[C@H](NS(=O)(=O)/C=C/c1n[nH]c2c1CCCCC2Cc1cccc(F)c1)c1ccccc1` (single isomer, unassigned) [Cpd 232, (2E)-2-[(8R*)-8-(3-fluoro-benzyl)-1,4,5,6,7,8-hexahydro-cycloheptapyrazol-3-yl]-ethenesulfonic acid [(1S)-1-phenyl-ethyl]-amide], for which the pEC50 is < 5.30 in test [1], ~5.49 in test [2] (setting [5]) and 8.05 in test [4].
Turning to `C[C@H](NS(=O)(=O)/C=C/c1n[nH]c2c1CCCC/C2=C\c1ccc(Cl)cc1)c1ccccc1` [Cpd 237, (2E,8E)-2-[8-(4-chloro-benzylidene)-1,4,5,6,7,8-hexahydro-cycloheptapyrazol-3-yl]-ethenesulfonic acid [(1S)-1-phenyl-ethyl]-amide], the results for the negative-log EC50 (pEC50) in test [1], in test [2] (setting [5]) and in test [4] were 5.77, 5.44 and 8.05, respectively. The pIC50 in test [3] is 6.16.
